Reference: PMC3000536 (Tetrahedron letters, 2011)
“Also recorded” adds a separate entry of the source.

Experiments:
Rice α-Glucosidase = Rice α-Glucosidase (Oryza sativa subsp. japonica, UniProt Q653V7); experiment: Glycosidase inhibition, rice α-glucosidase; assay type: biochemical
Rat intestinal maltase = experiment: Glycosidase inhibition, rat intestinal maltase; assay type: biochemical; conditions: read-out: IC50 α-Glucosidase Rat intestinal maltase
[1] = target: Rat intestinal isomaltase (Rattus norvegicus, UniProt P23739); experiment: Glycosidase inhibition, rat intestinal isomaltase; assay type: biochemical
Rat intestinal isomaltase, sequence (P23739 whole entry): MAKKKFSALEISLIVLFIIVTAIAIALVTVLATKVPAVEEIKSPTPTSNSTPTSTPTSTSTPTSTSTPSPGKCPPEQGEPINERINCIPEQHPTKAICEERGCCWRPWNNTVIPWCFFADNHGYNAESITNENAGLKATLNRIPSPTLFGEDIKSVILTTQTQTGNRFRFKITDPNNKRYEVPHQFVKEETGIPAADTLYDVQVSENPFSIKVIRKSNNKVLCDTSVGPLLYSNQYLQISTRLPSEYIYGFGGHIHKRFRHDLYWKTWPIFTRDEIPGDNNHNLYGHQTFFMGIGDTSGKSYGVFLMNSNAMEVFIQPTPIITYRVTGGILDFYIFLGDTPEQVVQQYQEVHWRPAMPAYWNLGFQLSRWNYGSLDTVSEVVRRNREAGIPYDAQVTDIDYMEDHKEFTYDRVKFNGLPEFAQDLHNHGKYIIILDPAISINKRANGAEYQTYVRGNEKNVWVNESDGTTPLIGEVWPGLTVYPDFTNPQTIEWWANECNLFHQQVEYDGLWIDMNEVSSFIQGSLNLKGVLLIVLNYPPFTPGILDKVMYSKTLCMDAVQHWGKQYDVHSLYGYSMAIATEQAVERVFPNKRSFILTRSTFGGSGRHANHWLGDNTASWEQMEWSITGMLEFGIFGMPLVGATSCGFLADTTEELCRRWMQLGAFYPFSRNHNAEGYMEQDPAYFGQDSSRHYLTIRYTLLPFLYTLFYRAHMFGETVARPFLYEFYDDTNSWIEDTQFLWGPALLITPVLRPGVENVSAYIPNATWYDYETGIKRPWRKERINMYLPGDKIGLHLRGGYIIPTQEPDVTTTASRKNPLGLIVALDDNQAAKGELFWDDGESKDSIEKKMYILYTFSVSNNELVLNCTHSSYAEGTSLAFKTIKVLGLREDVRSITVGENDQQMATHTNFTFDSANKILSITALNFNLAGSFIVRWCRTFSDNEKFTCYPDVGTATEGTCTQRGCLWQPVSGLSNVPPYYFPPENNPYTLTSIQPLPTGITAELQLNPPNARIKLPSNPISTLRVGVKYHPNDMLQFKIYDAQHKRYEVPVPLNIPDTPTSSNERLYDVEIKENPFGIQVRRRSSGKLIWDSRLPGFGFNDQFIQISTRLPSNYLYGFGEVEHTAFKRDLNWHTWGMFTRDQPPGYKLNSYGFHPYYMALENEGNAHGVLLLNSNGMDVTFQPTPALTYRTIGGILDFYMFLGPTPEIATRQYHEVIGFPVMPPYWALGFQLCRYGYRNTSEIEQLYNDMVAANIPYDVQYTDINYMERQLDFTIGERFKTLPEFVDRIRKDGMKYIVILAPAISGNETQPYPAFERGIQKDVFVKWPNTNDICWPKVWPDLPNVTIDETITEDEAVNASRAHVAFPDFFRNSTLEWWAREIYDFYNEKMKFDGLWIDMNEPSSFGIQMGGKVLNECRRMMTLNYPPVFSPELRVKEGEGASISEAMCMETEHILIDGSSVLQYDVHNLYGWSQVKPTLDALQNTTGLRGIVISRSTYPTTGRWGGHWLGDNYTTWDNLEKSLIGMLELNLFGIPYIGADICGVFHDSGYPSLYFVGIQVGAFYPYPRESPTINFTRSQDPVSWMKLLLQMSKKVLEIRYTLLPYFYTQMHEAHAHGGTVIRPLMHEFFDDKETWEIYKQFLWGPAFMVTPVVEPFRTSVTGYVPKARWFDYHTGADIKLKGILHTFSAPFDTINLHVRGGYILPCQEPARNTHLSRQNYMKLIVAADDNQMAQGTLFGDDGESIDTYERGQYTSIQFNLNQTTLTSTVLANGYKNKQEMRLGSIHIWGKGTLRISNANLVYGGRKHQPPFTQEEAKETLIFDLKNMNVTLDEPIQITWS

Almond β-Glucosidase = experiment: Glycosidase inhibition, almond β-glucosidase; assay type: biochemical; conditions: read-out: IC50 β-Glucosidase Almond
[2] = target: T1, Rat intestinal cellobiase (Rattus norvegicus, UniProt Q02401); experiment: Glycosidase inhibition, rat intestinal cellobiase; assay type: biochemical
T1 sequence (Q02401 868-1928): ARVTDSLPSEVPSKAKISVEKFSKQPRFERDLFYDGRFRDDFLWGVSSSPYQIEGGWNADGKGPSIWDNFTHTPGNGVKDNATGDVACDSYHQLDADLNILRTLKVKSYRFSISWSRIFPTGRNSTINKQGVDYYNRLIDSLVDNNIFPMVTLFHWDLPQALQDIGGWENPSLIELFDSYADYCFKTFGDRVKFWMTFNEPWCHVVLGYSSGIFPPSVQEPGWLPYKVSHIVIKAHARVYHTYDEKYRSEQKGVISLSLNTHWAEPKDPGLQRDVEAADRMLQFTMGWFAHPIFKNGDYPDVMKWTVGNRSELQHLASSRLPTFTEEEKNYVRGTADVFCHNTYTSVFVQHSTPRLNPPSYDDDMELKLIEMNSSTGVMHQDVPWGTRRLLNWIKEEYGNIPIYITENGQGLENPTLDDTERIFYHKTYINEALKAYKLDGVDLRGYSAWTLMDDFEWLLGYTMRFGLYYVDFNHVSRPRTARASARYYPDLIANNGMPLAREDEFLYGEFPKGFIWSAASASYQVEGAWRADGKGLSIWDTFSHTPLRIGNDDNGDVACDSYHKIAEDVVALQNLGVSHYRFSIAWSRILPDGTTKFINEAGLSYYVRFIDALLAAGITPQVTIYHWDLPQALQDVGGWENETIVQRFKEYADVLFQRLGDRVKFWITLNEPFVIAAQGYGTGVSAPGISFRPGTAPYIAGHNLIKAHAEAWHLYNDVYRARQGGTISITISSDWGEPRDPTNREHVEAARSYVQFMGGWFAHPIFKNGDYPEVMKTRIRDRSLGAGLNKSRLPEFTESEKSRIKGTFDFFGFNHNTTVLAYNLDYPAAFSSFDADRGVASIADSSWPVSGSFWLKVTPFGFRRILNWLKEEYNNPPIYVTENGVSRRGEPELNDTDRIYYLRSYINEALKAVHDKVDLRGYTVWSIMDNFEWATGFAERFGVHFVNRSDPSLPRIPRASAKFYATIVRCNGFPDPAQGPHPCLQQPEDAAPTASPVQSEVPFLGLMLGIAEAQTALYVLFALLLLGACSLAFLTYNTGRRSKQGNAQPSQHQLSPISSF

[3] = target: Coffee beans α-Galactosidase (Coffea arabica, UniProt Q42656); experiment: Glycosidase inhibition, coffee beans α-galactosidase; assay type: biochemical
Coffee beans α-Galactosidase, sequence (Q42656 16-378): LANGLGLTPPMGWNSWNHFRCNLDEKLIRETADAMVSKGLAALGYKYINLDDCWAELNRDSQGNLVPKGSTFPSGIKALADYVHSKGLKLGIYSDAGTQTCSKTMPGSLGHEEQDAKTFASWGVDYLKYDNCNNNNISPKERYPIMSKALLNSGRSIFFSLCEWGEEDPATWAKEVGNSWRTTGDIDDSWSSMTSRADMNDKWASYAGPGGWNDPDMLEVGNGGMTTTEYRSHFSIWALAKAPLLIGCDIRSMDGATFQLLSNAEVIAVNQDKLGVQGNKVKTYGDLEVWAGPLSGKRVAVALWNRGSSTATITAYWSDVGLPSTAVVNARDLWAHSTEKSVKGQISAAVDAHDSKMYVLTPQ

[4] = target: T2, Human lysosome α-Galactosidase (Homo sapiens, UniProt P06280); experiment: Glycosidase inhibition, human lysosome α-galactosidase; assay type: biochemical
T2 sequence (P06280 32-429): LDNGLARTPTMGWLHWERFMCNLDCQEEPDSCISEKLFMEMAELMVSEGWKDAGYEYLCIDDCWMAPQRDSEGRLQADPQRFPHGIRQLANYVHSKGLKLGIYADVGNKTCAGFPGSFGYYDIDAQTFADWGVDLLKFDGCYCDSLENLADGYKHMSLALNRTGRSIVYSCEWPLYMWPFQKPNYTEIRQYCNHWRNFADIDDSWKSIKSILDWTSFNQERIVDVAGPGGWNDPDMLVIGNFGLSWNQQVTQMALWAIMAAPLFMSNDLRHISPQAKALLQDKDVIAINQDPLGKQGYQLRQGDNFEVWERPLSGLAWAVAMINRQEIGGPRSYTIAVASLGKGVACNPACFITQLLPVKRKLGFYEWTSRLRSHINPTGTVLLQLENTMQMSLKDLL

[5] = target: Bovine liver β-Galactosidase; experiment: Glycosidase inhibition, bovine liver β-galactosidase; assay type: biochemical; conditions: read-out: IC50 β-Galactosidase Bovine liver
Rat intestinal lactase = target: T3, Rat intestinal lactase (Rattus norvegicus, UniProt Q02401); experiment: Glycosidase inhibition, rat intestinal lactase; assay type: biochemical
T3 sequence (Q02401 868-1928): T1 sequence (Q02401 868-1928)

Jack beans α-Mannosidase = target: T4, Jack beans α-Mannosidase (Canavalia ensiformis, UniProt C0HJB3); experiment: Glycosidase inhibition, jack beans α-mannosidase; assay type: biochemical
T4 sequence (C0HJB3 1-981): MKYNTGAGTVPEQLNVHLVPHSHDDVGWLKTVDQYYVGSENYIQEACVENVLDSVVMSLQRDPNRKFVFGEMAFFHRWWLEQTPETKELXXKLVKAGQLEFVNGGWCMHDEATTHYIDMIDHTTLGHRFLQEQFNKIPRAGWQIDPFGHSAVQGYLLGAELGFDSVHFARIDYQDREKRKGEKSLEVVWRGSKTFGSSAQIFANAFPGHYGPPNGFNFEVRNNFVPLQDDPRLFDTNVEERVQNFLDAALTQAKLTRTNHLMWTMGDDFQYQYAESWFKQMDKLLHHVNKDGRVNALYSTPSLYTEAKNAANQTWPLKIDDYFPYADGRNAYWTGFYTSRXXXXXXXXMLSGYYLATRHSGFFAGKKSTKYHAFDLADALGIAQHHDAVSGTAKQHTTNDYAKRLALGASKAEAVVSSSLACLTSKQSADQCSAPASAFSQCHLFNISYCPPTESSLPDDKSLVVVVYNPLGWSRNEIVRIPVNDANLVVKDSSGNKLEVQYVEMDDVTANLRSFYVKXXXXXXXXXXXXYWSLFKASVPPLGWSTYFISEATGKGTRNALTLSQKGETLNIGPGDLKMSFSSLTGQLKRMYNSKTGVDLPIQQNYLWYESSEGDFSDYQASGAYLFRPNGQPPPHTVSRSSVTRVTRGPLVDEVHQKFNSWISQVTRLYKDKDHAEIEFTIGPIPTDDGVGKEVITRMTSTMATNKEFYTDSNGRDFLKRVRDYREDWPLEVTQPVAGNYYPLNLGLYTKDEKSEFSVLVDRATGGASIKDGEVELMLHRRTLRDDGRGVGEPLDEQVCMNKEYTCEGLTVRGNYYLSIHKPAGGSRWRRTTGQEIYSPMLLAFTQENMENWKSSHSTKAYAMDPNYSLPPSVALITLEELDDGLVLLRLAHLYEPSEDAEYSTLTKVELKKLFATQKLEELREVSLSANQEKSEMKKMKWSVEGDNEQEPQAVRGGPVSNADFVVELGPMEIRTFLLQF

Snail β-Mannosidase = experiment: Glycosidase inhibition, snail β-mannosidase; assay type: biochemical; conditions: read-out: IC50 β-Mannosidase Snail
[6] = target: T5, Bovine epididymis α-L-Fucosidase (Bos taurus, UniProt Q2KIM0); experiment: Glycosidase inhibition, bovine epididymis α-L-fucosidase; assay type: biochemical
T5 sequence (Q2KIM0 23-468): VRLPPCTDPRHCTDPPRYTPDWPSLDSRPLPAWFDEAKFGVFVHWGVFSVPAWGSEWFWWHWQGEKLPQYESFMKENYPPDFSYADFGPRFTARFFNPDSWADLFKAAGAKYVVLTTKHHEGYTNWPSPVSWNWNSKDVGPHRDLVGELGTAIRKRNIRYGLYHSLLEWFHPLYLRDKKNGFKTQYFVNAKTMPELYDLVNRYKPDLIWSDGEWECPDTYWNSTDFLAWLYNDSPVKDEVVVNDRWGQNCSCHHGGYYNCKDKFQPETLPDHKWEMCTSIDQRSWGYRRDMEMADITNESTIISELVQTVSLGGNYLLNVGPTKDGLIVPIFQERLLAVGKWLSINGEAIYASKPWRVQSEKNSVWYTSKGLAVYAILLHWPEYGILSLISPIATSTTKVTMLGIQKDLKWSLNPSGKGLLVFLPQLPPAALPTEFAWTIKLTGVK

[7] = target: T6, Rabbit muscle Glycogen phosphorylase (Oryctolagus cuniculus, UniProt P00489); experiment: Glycogen phosphorylase inhibition, rabbit muscle; assay type: biochemical
T6 sequence (P00489 1-843): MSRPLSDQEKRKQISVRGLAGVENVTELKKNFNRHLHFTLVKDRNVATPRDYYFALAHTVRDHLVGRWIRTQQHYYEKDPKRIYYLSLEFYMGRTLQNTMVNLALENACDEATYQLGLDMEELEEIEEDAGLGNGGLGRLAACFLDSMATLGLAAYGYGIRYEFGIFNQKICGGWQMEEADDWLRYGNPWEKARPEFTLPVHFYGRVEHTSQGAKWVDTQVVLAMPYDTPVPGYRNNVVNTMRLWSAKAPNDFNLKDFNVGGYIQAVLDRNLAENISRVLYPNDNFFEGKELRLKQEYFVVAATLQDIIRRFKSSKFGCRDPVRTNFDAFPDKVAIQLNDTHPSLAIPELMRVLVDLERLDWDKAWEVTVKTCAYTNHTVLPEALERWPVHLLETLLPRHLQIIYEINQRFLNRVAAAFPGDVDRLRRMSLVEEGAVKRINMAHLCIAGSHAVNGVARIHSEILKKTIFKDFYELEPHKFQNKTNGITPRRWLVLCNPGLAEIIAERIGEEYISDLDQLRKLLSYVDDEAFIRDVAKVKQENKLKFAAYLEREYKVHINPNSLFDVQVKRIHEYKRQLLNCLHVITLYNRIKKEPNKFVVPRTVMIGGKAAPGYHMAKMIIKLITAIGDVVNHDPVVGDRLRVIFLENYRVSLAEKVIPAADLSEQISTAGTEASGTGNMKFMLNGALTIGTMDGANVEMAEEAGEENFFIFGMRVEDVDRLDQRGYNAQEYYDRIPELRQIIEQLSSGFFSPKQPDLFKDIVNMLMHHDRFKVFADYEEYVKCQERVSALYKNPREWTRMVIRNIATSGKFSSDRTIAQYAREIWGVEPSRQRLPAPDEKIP

ER glucosidases = conditions: cited from earlier work
F508del-CFTR [8] = conditions: ref viii; cited from earlier work
Rat intestinal sucrase = Rat intestinal sucrase (Rattus norvegicus, UniProt P23739); experiment: Glycosidase inhibition and kinetic analysis, rat intestinal sucrase; conditions: for Mode of inhibition of rat intestinal sucrase: kinetic analysis
Rat intestinal sucrase, sequence (P23739 whole entry): as the sequence (P23739 whole entry) above

F508del-CFTR [9] = target: F508del-CFTR (Homo sapiens, UniProt P13569, DEL508-508); experiment: CFTR function in CF-KM4 cells by single-cell fluorescence imaging; assay type: cell-based

Rice α-Glucosidase, sequence (Q653V7 34-885): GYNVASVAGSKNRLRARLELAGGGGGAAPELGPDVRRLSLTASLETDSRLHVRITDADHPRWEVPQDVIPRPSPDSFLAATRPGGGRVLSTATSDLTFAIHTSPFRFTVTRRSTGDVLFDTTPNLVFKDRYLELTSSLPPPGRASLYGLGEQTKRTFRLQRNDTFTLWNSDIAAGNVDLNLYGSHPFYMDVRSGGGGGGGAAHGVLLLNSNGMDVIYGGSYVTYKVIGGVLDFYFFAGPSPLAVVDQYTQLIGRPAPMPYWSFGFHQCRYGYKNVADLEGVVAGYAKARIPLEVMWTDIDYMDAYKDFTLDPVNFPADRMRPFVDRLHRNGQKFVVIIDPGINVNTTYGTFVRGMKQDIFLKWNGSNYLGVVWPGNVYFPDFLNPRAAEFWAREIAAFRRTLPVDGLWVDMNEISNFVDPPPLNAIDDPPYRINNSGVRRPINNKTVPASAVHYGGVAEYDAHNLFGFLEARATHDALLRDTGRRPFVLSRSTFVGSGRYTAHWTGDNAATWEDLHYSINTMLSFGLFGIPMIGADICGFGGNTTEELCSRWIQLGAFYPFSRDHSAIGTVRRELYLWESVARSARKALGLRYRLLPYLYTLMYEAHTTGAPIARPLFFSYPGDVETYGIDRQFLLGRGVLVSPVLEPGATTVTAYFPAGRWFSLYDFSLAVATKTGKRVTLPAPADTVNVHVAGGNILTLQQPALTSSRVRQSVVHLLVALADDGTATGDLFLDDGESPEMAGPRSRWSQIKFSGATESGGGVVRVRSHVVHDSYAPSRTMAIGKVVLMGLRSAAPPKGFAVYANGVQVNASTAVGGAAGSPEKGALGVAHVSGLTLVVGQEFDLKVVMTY

| SMILES | IC50 (Rice α-Glucosidase) [µM] | IC50 (Rat intestinal maltase) [µM] | IC50 [1] [µM] | IC50 (Almond β-Glucosidase) [µM] | IC50 [2] [µM] | IC50 [3] [µM] | IC50 [4] [µM] | IC50 [5] [µM] | IC50 (Rat intestinal lactase) [µM] | IC50 (Jack beans α-Mannosidase) [µM] | IC50 (Snail β-Mannosidase) [µM] | IC50 [6] [µM] | IC50 [7] [µM] | Inhibition of glycogen phosphorylase (in words) [7] | IC50 (Rat intestinal sucrase) [µM] | Corrector effect on CFTR function (F508del-CFTR [9]) | Ki (Rat intestinal sucrase) [µM] | other results |
| --- | --- | --- | --- | --- | --- | --- | --- | --- | --- | --- | --- | --- | --- | --- | --- | --- | --- | --- |
| OC[C@]1(O)CNC[C@@H]1O [isoLAB 2L] | > 1000 | > 1000 | > 1000 | > 1000 | > 1000 | > 1000 | > 1000 | > 1000 | > 1000 | > 1000 | > 1000 | > 1000 | > 1000 | no significant inhibition | > 1000 | – | – | Inhibition of ER glucosidases (ER glucosidases): neither of which showed any inhibition; Rescue of the defective F508del-CFTR function (F508del-CFTR [8]): significant rescue; also recorded: partially rescues |
| OC[C@H]1NC[C@@H](O)[C@@H]1O [DAB 3D] | – | – | – | 250 | 756 | > 1000 | – | > 1000 | – | – | > 1000 | > 1000 | – | – | – | – | – | – |
| C[C@@]1(CO)NC[C@H](O)[C@H]1O [4-C-Me-LAB 1L] | 5.8 | 2.4 | 5.1 | > 1000 | > 1000 | > 1000 | > 1000 | > 1000 | > 1000 | > 1000 | > 1000 | > 1000 | > 1000 | no significant inhibition | – | Neither of the 4-C-methyl pyrrolidines 1D and 1L had any corrector effect | 0.95 | Mode of inhibition of rat intestinal sucrase (Rat intestinal sucrase; listed as 1L): non-competitive inhibitor; Mode of inhibition of rat intestinal sucrase (Rat intestinal sucrase; listed as 4-C-Me-LAB): non-competitive |
| OC[C@@H]1NC[C@H](O)[C@H]1O [LAB 3L] | – | – | – | > 1000 | > 1000 | > 1000 | – | > 1000 | – | > 1000 | > 1000 | > 1000 | – | – | – | – | – | – |
| C[C@]1(CO)NC[C@@H](O)[C@@H]1O [4-C-Me-DAB 1D, 1,4-dideoxy-1,4-imino-4-C-methyl-D-arabinitol] | 7.1 | 0.74 | 3.4 | > 1000 | > 1000 | > 1000 | > 1000 | > 1000 | > 1000 | > 1000 | > 1000 | > 1000 | > 1000 | no significant inhibition | 0.41 | Neither of the 4-C-methyl pyrrolidines 1D and 1L had any corrector effect | 0.89 | Mode of inhibition of rat intestinal sucrase (Rat intestinal sucrase; listed as 1D): competitive inhibitor; Mode of inhibition of rat intestinal sucrase (Rat intestinal sucrase; listed as 4-C-Me-DAB): competitive |
| OC[C@@]1(O)CNC[C@H]1O [isoDAB 2D] | 41 | 24 | 20 | > 1000 | > 1000 | > 1000 | > 1000 | > 1000 | > 1000 | > 1000 | > 1000 | > 1000 | > 1000 | no significant inhibition | 15 | – | – | – |
